Our source for the IC50 and Emax values is paper PMC7155171, “Probing the Open Global Health Chemical Diversity Library for Multistage-Active Starting Points for Next-Generation Antimalarials” (ACS Infectious Diseases, 2020).

Like-named read-outs stand apart in the source and are kept apart here. Some results are limits rather than exact numbers.

The subject of the test is P. falciparum Dd2 (PfLuc) line expressing firefly luciferase, asexual blood stage. The experiment in a line: microbe, parasite or virus in culture. Type of test: cell-based, Plasmodium falciparum. The conditions noted are these: Plasmodium falciparum.
The mark [1] stands for this setting: DD2, 8-pt dose response, 96hr, read-out: P. falciparum Luciferase ABS 8-pt Reconfirmation Dose Response (96hr): IC50.
[2] abbreviates: DD2, 8-pt dose response, 96hr, read-out: P. falciparum Luciferase ABS 8-pt Reconfirmation Dose Response (96hr): Maximum inhibition (%).
The mark [3] stands for this setting: DD2, read-out: P. falciparum Luciferase ABS 11-pt Reconfirmation Dose Response (48hr): IC50, 11-pt dose response, 48hr.
Where [4] appears, read: DD2, 11-pt dose response, 48hr, read-out: P. falciparum Luciferase ABS 11-pt Reconfirmation Dose Response (48hr): Maximum inhibition (%).
Setting [5] is: DD2, 11-pt dose response, 96hr, read-out: P. falciparum Luciferase ABS 11-pt Reconfirmation Dose Response (96hr): IC50.
Setting [6] is: DD2, 11-pt dose response, 96hr, read-out: P. falciparum Luciferase ABS 11-pt Reconfirmation Dose Response (96hr): Maximum inhibition (%).

In general, IC50 refers to the concentration that gives 50% inhibition. As to `O=S(=O)(NC[C@H]1C[C@@H]2CCN1C[C@@H]2CN1CCCC1)c1ccc(Cl)cc1` [DDD01024774], the 50% inhibitory concentration (IC50) under setting [1] was 1.46 µM. For the same molecule, under setting [2], the Emax came to 91%.
Taken in the same sequence, the figures for `CN(C[C@H]1CN2CC[C@H]1C[C@@H]2CNC(=O)c1ccco1)c1ccccc1` [DDD01024849] were 1.76 µM and 83.2%.
Consider `O=C([C@@H]1Cc2[nH]cnc2CN1Cc1cc2ccccc2o1)N1CCCC1` [DDD01024952], for which the IC50 under setting [1] was determined as 1.42 µM. In addition, under setting [2], the Emax was 91%.
In the case of `CCC1CN(CC(=O)NCCN2CCCCCC2)c2ccccc2S1` (stereo not shown) [DDD01025851], the concentration for half-maximal inhibition (IC50) under setting [1] came out at 1.73 µM. For the same molecule, the Emax under setting [2] is 82.5%.
The like results for `CN1CC[C@H](N(Cc2ccccc2)CC2CC2)C[C@H](O)C1` [DDD01026225] were, in that order, 1.29 µM and 82%.
Taken in the same sequence, the figures for `CC(C)n1ncc2c1NC(=O)CC21C(=O)Nc2c(Cl)ccc(Cl)c21` (stereo not shown) [DDD01027128] were 1.59 µM and 94.1%.
On to `CN1CCn2c(-c3cccc(F)c3)cnc2C12CCN(CC1CC1)CC2` [DDD01030549], for which the concentration for half-maximal inhibition (IC50) under setting [1] was 1.2 µM. In addition, under setting [2], the Emax was determined as 84.4%.
Taken in the same sequence, the figures for `c1cncc(-c2ccc3c(c2)CCC32CCNCC2)c1` [DDD01031368] were 1.35 µM and 95.6%.
For `Cc1ccc(CN2CCCC3(CCN(Cc4ccoc4)CC3)C2)cc1` [DDD01031609], the IC50 under setting [3] was found to be 3.17 µM, the IC50 under setting [1] turned out to be 1.16 µM and the half-maximal inhibitory concentration (IC50) under setting [5] is 0.742 µM. The Emax runs as follows: under setting [2], 88.7%; under setting [4], 88.7%; under setting [6], 98.3%.
On to `c1ccc(NC[C@@H]2CCC[C@@H]3CN(Cc4cccnc4)C[C@@H]32)nc1` [DDD01032334], for which the IC50 under setting [1] stood at 1.72 µM. In addition, the Emax under setting [2] turned out to be 81.5%.
For the molecule `COc1cccc(-n2ccc3nc(N4CCCC4)ncc3c2=O)c1` [DDD01034957], the IC50 under setting [3] is above 4.16 µM, the IC50 under setting [1] came to 1.6 µM and the IC50 under setting [5] came to 0.531 µM. In addition, the Emax runs as follows: under setting [2], 95.4%; under setting [4], 13.2%; under setting [6], 98.6%.
Regarding `Fc1ccc(Sc2ccccc2CNC2=NCCN2)cc1` [DDD01035542], the IC50 under setting [1] amounted to 1.81 µM. Besides, the Emax under setting [2] is 81.8%.
The like results for `Fc1ccccc1Sc1ccccc1CNC1=NCCN1` [DDD01035543] were, in that order, 1.57 µM and 83.6%.
Regarding `O=C(Cn1ccc2ccc(Br)cc21)NC[C@@H]1CCCN2CCCC[C@H]12` [DDD01035644], the IC50 under setting [1] is 2.57 µM. Moreover, under setting [2], the Emax was 81.8%.
Turning to `c1cnc(N2CCC3(CC2)CN(CC2CC2)c2ccccc23)nc1` [DDD01036239], the IC50 under setting [1] was 1.74 µM. For the same molecule, the Emax under setting [2] came to 90.6%.
The like results for `COc1ccc(CN2CC[C@@H](O)[C@@H]2Cc2ccccc2)cc1` [DDD01037044] were, in that order, 1.83 µM and 77.4%.
Take `CCc1ccc(-c2cc(C(F)(F)F)nc(N3CCC(N)CC3)n2)cc1` [DDD01037626]: the IC50 is, setting by setting: under setting [3], 1.86 µM; under setting [1], 1.72 µM; under setting [5], 0.828 µM. Besides, the Emax under setting [2] was 93.8%, the Emax under setting [4] was determined as 98.9% and the Emax under setting [6] stood at 100%.
Regarding `Cc1cc(C)n(CCCn2cncc2-c2ccc3c(c2)CC(C)N3C)n1` (stereo not shown) [DDD01056528], the IC50 under setting [1] is 1.7 µM. Besides, the Emax under setting [2] came out at 94.8%.
Taken in the same sequence, the figures for `Cc1nn(C)c(C)c1CCn1cncc1-c1ccc2c(c1)CC(C)N2C` (stereo not shown) [DDD01056530] were 1.85 µM and 94.7%.
The like results for `CN(C)CCn1nc(C2CCN(Cc3ccccc3)C2)c2cccnc21` (stereo not shown) [DDD01056665] were, in that order, 1.99 µM and 70.9%.
Consider `Cc1cc(Cc2cccc(C(F)(F)F)c2)cc(C2CCCNC2)n1` (stereo not shown) [DDD01057885], for which the IC50 under setting [3] turned out to be 4.53 µM, the concentration for half-maximal inhibition (IC50) under setting [1] worked out at 1.24 µM and the IC50 under setting [5] was 0.958 µM. For the same molecule, the Emax under setting [2] stood at 92% and the Emax under setting [6] worked out at 100%.
Consider `COc1cccc(OC)c1CNC(Cc1ccsc1)c1ccc(C)cn1` (stereo not shown) [DDD01058770], for which the IC50 under setting [1] amounted to 1.56 µM.
In the case of `CCn1cncc1CN1CCN(CC2(c3ccc(C)cc3)CC2)CC1` [DDD01059073], the IC50 under setting [1] turned out to be 1.26 µM. Moreover, the Emax under setting [2] was 85.6%.
The like results for `CN(C(=O)c1ccon1)[C@@H]1CCC[C@@H](Oc2ccccc2)[C@@H]1O` [DDD01059734] were, in that order, 1.12 µM and 85.7%.
For the molecule `CN1CCCCC1c1ncc2c(n1)CCN(Cc1ccc(F)cc1)C2` (stereo not shown) [DDD01059924], the IC50 under setting [1] was 1.65 µM. In addition, the Emax under setting [2] worked out at 84.5%.
Taken in the same sequence, the figures for `Cc1cc(C)c2cc(CNC3CCCCC3)c3nn(C)c(=O)n3c2c1` [DDD01060652] were 1.15 µM and 88.2%.
The like results for `Cc1cnccc1CN1CC[C@H](Oc2cccc(F)c2)[C@@](C)(O)C1` [DDD01060866] were, in that order, 1.79 µM and 91.8%.
In the case of `CCCOc1ccccc1CN[C@@H]1CCC[C@H]1Cc1cc(C)no1` [DDD01060989], the IC50 under setting [1] came to 2.71 µM. Besides, the Emax under setting [2] turned out to be 79.8%.
The like results for `COc1cccc([C@H]2CN(C(C)=O)[C@@H]3CCN(Cc4ccsc4)C[C@H]23)c1` [DDD01061089] were, in that order, 1.31 µM and 82.2%.
On to `CCC(CC)(CN)NC(C)c1ccccc1` (stereo not shown) [DDD01061915], for which the IC50 (DD2, read-out: CDD P. falciparum Luciferase ABS 11-pt Reconfirmation Dose Response (48hr): IC50 (μM), 11-pt dose response, 48hr) was above 12.5 µM; the IC50 (DD2, 8-pt dose response, 96hr, read-out: CDD P. falciparum Luciferase ABS 8-pt Reconfirmation Dose Response (96hr): IC50) stood at 1.02 µM; the IC50 (DD2, 11-pt dose response, 96hr, read-out: CDD P. falciparum Luciferase ABS 11-pt Reconfirmation Dose Response (96hr): IC50) is above 1.39 µM. The Emax is, setting by setting: (DD2, 8-pt dose response, 96hr, read-out: CDD P. falciparum Luciferase ABS 8-pt Reconfirmation Dose Response (96hr): Maximum inhibition (%)) 85.9%; (DD2, 11-pt dose response, 48hr, read-out: CDD P. falciparum Luciferase ABS 11-pt Reconfirmation Dose Response (48hr): Maximum inhibition (%)) 49.2%; (DD2, 11-pt dose response, 96hr, read-out: CDD P. falciparum Luciferase ABS 11-pt Reconfirmation Dose Response (96hr): Maximum inhibition (%)) 87.7%.
In the case of `Cn1ccnc1C(O)(CCNCc1ccc(Cl)o1)C(F)(F)F` (stereo not shown) [DDD01062848], the IC50 under setting [1] was 2.81 µM. The Emax under setting [2] was 78.7%.
Taken in the same sequence, the figures for `Clc1cc(CN2CCCN3CCCC3C2)c2ncccc2c1` (stereo not shown) [DDD01063271] were 1.74 µM and 93%.
For the molecule `Cn1ccnc1CNC1CCCOc2c1ccc1ccccc21` (stereo not shown) [DDD01063614], the IC50 under setting [1] amounted to 1.52 µM. Further, under setting [2], the Emax stood at 80.3%.
The like results for `CC(O)CN1CCC(CN(C)Cc2cc(F)cc3cccnc23)CC1` (stereo not shown) [DDD01063726] were, in that order, 1.33 µM and 92.8%.
The like results for `CC(C)(NCc1cccc(O)c1)c1ccc2c(c1)OCO2` [DDD01063924] were, in that order, 1.21 µM and 84.9%.
Taken in the same sequence, the figures for `CC(NCCc1nccn1Cc1ccccc1)c1cccs1` (stereo not shown) [DDD01065609] were 1.39 µM and 85.7%.
For the molecule `Cc1ccc(C(C)NCCc2nccn2Cc2ccccc2)o1` (stereo not shown) [DDD01065613], the IC50 under setting [1] is 1.62 µM. For the same molecule, the Emax under setting [2] was 82.8%.
Take `CCC(CNC(=O)CNC(C)=O)Oc1cccc(F)c1` (stereo not shown) [DDD01066100]: the IC50 was found to be 6.31 µM under setting [3], 2.09 µM under setting [1] and 2.15 µM under setting [5]. Besides, the Emax stood at 83.9% under setting [2], 55.6% under setting [4] and 83.4% under setting [6].
Take `CN(C)CCN(Cc1cccnc1)C(=O)c1ccn(-c2ccccc2)n1` [DDD01066387]: under setting [1], the IC50 is 1.43 µM. The Emax under setting [2] was 81.1%.
The like results for `CCN(C)CC1CCN(S(=O)(=O)c2cc(C)c(F)cc2Cl)C1` (stereo not shown) [DDD01067996] were, in that order, 1.72 µM and 86.1%.
For `CCN1CCC(CNCc2cc(C)ccc2OC)C1` (stereo not shown) [DDD01069824], the IC50 under setting [1] was determined as 1.26 µM. Further, the Emax under setting [2] was 90.1%.
The like results for `CNS(=O)(=O)c1cccc(C(C)NCc2ccccc2OC)c1` (stereo not shown) [DDD01069885] were, in that order, 1.18 µM and 80.1%.
